# Reference: the supplement of paper PMC10307832
# Tests used:
# Assay in all cases: relative viability (nuclei count vs DMSO), 5 days (fraction); higher = more cells survive
# [1] = test system: ABC-1
# How it was run: (§1)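 Nuclei were stained with Hoechst during a one-step fixation (final 0.05% Triton X-100, 1% formaldehyde, 1 ug/ml Hoechst) carried out 5 days after dosing, then counted on 4× images. The cells, lung cancer lines in 1536-well plates, had been dosed by pin tool the day after seeding with one drug alone or a fixed anchor-drug dose plus five library-drug doses (not always all listed) in √10 steps. Relative viability is the nuclei count in treated wells divided by that in vehicle wells, and each value is the median of duplicate plates.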
# [2] = test system: COR-L23
# How it was run: as §1
# [3] = test system: EMC-BAC-2
# How it was run: as §1
# [4] = test system: HARA
# How it was run: as §1
# [5] = test system: HCC-15
# How it was run: as §1
# [6] = test system: HCC-366
# How it was run: as §1
# [7] = test system: HCC-78
# How it was run: as §1
# [8] = test system: HOP-62
# How it was run: as §1
# [9] = test system: LC-2-ad
# How it was run: as §1
# [10] = test system: NCI-H1395
# How it was run: as §1
# [11] = test system: NCI-H1793
# How it was run: as §1
# [12] = test system: NCI-H1944
# How it was run: as §1
# [13] = test system: NCI-H1993
# How it was run: as §1
# [14] = test system: NCI-H2023
# How it was run: as §1
# [15] = test system: NCI-H2126
# How it was run: as §1
# [16] = test system: NCI-H2228
# How it was run: as §1
# [17] = test system: NCI-H23
# How it was run: as §1
# [18] = test system: NCI-H2405
# How it was run: as §1
# [19] = test system: NCI-H358
# How it was run: as §1
# [20] = test system: NCI-H838
# How it was run: as §1
# [21] = test system: SK-LU-1
# How it was run: as §1
structure (smiles),measurement,setting,value
CCN(CC)CCCCNc1ncc2cc(-c3cc(OC)cc(OC)c3)c(NC(=O)NC(C)(C)C)nc2n1 + C[C@]1(O)C[C@@H](c2nc(-c3ccc4ccc(-c5ccccc5)nc4c3)c3c(N)nccn32)C1 [Linsitinib] (partner 1 µM),relative viability,[1]; first compound 0.01 µM,0.915
same,relative viability,[1]; first compound 0.03162 µM,0.809
same,relative viability,[1]; first compound 0.1 µM,0.88
same,relative viability,[1]; first compound 0.3162 µM,0.838
same,relative viability,[1]; first compound 1 µM,0.722
same,relative viability,[2]; first compound 0.01 µM,1
same,relative viability,[2]; first compound 0.03162 µM,1.2
same,relative viability,[2]; first compound 0.1 µM,1.15
same,relative viability,[2]; first compound 0.3162 µM,1.09
same,relative viability,[2]; first compound 1 µM,0.948
same,relative viability,[3]; first compound 0.01 µM,0.873
same,relative viability,[3]; first compound 0.03162 µM,0.836
same,relative viability,[3]; first compound 0.1 µM,0.821
same,relative viability,[3]; first compound 0.3162 µM,0.838
same,relative viability,[3]; first compound 1 µM,0.771
same,relative viability,[4]; first compound 0.01 µM,1.04
same,relative viability,[4]; first compound 0.03162 µM,1
same,relative viability,[4]; first compound 0.1 µM,0.989
same,relative viability,[4]; first compound 0.3162 µM,0.933
same,relative viability,[4]; first compound 1 µM,0.672
same,relative viability,[5]; first compound 0.01 µM,1.04
same,relative viability,[5]; first compound 0.03162 µM,0.875
same,relative viability,[5]; first compound 0.1 µM,0.951
same,relative viability,[5]; first compound 0.3162 µM,0.925
same,relative viability,[5]; first compound 1 µM,0.872
same,relative viability,[6]; first compound 0.01 µM,0.622
same,relative viability,[6]; first compound 0.03162 µM,0.706
same,relative viability,[6]; first compound 0.1 µM,0.66
same,relative viability,[6]; first compound 0.3162 µM,0.887
same,relative viability,[6]; first compound 1 µM,0.505
same,relative viability,[7]; first compound 0.03162 µM,0.55
same,relative viability,[7]; first compound 0.1 µM,0.497
same,relative viability,[7]; first compound 0.3162 µM,0.593
same,relative viability,[7]; first compound 1 µM,0.415
same,relative viability,[8]; first compound 0.01 µM,1.04
same,relative viability,[8]; first compound 0.03162 µM,1.02
same,relative viability,[8]; first compound 0.1 µM,0.935
same,relative viability,[8]; first compound 0.3162 µM,1.14
same,relative viability,[8]; first compound 1 µM,0.873
same,relative viability,[9]; first compound 0.01 µM,0.803
same,relative viability,[9]; first compound 0.03162 µM,0.913
same,relative viability,[9]; first compound 0.1 µM,0.958
same,relative viability,[9]; first compound 0.3162 µM,0.876
same,relative viability,[9]; first compound 1 µM,0.757
same,relative viability,[10]; first compound 0.03162 µM,1.02
same,relative viability,[10]; first compound 0.1 µM,0.935
same,relative viability,[10]; first compound 0.3162 µM,1.04
same,relative viability,[10]; first compound 1 µM,0.671
same,relative viability,[11]; first compound 0.01 µM,1.14
same,relative viability,[11]; first compound 0.1 µM,1.02
same,relative viability,[11]; first compound 0.3162 µM,1.03
same,relative viability,[11]; first compound 1 µM,0.656
same,relative viability,[12]; first compound 0.01 µM,1.27
same,relative viability,[12]; first compound 0.03162 µM,1.08
same,relative viability,[12]; first compound 0.1 µM,1.2
same,relative viability,[12]; first compound 0.3162 µM,1.3
same,relative viability,[12]; first compound 1 µM,1.12
same,relative viability,[13]; first compound 0.01 µM,0.763
same,relative viability,[13]; first compound 0.03162 µM,0.807
same,relative viability,[13]; first compound 0.1 µM,0.831
same,relative viability,[13]; first compound 0.3162 µM,0.751
same,relative viability,[13]; first compound 1 µM,0.731
same,relative viability,[14]; first compound 0.01 µM,0.716
same,relative viability,[14]; first compound 0.03162 µM,0.691
same,relative viability,[14]; first compound 0.1 µM,0.636
same,relative viability,[14]; first compound 0.3162 µM,0.708
same,relative viability,[14]; first compound 1 µM,0.685
same,relative viability,[15]; first compound 0.01 µM,0.725
same,relative viability,[15]; first compound 0.03162 µM,0.712
same,relative viability,[15]; first compound 0.1 µM,0.794
same,relative viability,[15]; first compound 0.3162 µM,0.674
same,relative viability,[15]; first compound 1 µM,0.708
same,relative viability,[16]; first compound 0.01 µM,0.741
same,relative viability,[16]; first compound 0.03162 µM,0.834
same,relative viability,[16]; first compound 0.1 µM,0.872
same,relative viability,[16]; first compound 0.3162 µM,1.07
same,relative viability,[16]; first compound 1 µM,0.635
same,relative viability,[17]; first compound 0.01 µM,0.669
same,relative viability,[17]; first compound 0.03162 µM,0.63
same,relative viability,[17]; first compound 0.1 µM,0.644
same,relative viability,[17]; first compound 0.3162 µM,0.601
same,relative viability,[17]; first compound 1 µM,0.516
same,relative viability,[18]; first compound 0.01 µM,0.76
same,relative viability,[18]; first compound 0.03162 µM,0.862
same,relative viability,[18]; first compound 0.1 µM,0.863
same,relative viability,[18]; first compound 0.3162 µM,1.03
same,relative viability,[18]; first compound 1 µM,0.817
same,relative viability,[19]; first compound 0.01 µM,0.731
same,relative viability,[19]; first compound 0.03162 µM,0.748
same,relative viability,[19]; first compound 0.1 µM,0.767
same,relative viability,[19]; first compound 0.3162 µM,0.859
same,relative viability,[19]; first compound 1 µM,0.695
same,relative viability,[20]; first compound 0.01 µM,1.13
same,relative viability,[20]; first compound 0.03162 µM,1
same,relative viability,[20]; first compound 0.1 µM,1.05
same,relative viability,[20]; first compound 0.3162 µM,1.01
same,relative viability,[20]; first compound 1 µM,0.603
same,relative viability,[21]; first compound 0.01 µM,1.24
same,relative viability,[21]; first compound 0.03162 µM,1.1
same,relative viability,[21]; first compound 0.1 µM,1.4
same,relative viability,[21]; first compound 0.3162 µM,1.49
same,relative viability,[21]; first compound 1 µM,0.988
